The text below walks through data of patent US20220380314A1, “SUBSTITUTED, SATURATED AND UNSATURATED N-HETEROCYCLIC CARBOXAMIDES AND RELATED COMPOUNDS FOR THEIR USE IN THE TREATMENT OF MEDICAL DISORDERS” (Bial - R&D Investments, S.A., priority 2019, published 2022).

Structures can show the parent of a compound that is named as a salt. Bounds are passed on as bounds.

This experiment has as its target T1, acid ceramidase (hACR) (Homo sapiens, UniProt Q13510).
T1 construct: expressed in transfected cells; cell lysate used
T1 sequence (Q13510 143-395 limits assumed): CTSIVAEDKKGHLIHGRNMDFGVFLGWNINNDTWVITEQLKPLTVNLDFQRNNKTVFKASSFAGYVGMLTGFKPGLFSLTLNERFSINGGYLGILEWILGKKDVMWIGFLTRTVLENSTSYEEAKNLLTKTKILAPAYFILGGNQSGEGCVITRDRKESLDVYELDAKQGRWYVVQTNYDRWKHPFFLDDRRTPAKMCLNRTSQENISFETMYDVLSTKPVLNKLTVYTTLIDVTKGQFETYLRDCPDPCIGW
T1 sequence (Q13510 22-142 limits assumed): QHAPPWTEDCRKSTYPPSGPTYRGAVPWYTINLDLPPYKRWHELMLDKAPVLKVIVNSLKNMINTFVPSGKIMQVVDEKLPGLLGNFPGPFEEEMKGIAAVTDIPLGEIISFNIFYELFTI
Description: Acid ceramidase inhibition, biochemical fluorescent assay with cell lysates overexpressing acid ceramidase, substrate Rbm14-12. As to conditions: cell lysates overexpressing acid ceramidase; 1 hr preincubation at RT; pH 4.5; substrate Rbm14-12 6.3 μM; read-out: hACR IC50. As for the experimental part: The ability of exemplary compounds to inhibit acid ceramidase was measured.
Cell lysates overexpressing acid ceramidase were used as the enzyme source for compound potency determination in a biochemical fluorescent assay. Briefly, compounds were preincubated with 10 µg protein of cell lysates in a dose-response manner for 1 hr at RT in the assay buffer containing 25 mM NaAC and 100 mM NaCl, pH 4.5. The reaction was initiated by the addition of substrate Rbm14-12 at a final concentration of 6.3 μM. The reaction was run at RT for 1 hr before it was stopped by the addition of the stopping buffer containing 20% methanol (v/v), 1 mg/ml NaIO4, 0.1 M glycine, pH 10.6. The samples were incubated with the stopping buffer at RT for 1 hr to allow the fluorescent product to be formed. Finally the plate was read with SpectraMax i3 plate reader (Molecular Devices) at ex360 nm and em446 nm. Data were collected and used to determine the IC50 values of compounds by curve fitting to the four-parameter inhibition equation.
The symbol “A” indicates inhibition of less than 0.2 μM; the symbol “B” indicates inhibition in the range of 0.2 μM up to 1 μM; and the symbol “C” indicates inhibition of greater than 1 μM.
As usually defined, the IC50 is the midpoint of a concentration-inhibition curve. Regarding `CC1CCC(c2ccccc2)CN1C(=O)NCCCCc1ccccc1` (mixture of isomers) [Example 80, 2-Methyl-5-phenyl-N-(4-phenylbutyl)piperidine-1-carboxamide], the IC50 was less than 200 nM.
As for `CC1C(c2ccccc2)CCCN1C(=O)NCCCCc1ccccc1` (mixture of isomers) [Example 81, 2-Methyl-3-phenyl-N-(4-phenylbutyl)piperidine-1-carboxamide], the IC50 lay in the range of 200 to 1000 nM.
Turning to `CCCCCNC(=O)N1[C@@H]2CC[C@H]1CC(c1ccccc1)C2` (mixture of isomers) [Example 82, endo- and exo-N-Pentyl-3-phenyl-8-azabicyclo[3.2.1]octane-8-carboxamide], the 50% inhibitory concentration (IC50) was more than 1000 nM.
The same measure for `CC1(C)CC(N2CCCCC2c2ccccc2)CCN1C(=O)NCCCCc1ccccc1` (mixture of isomers) [Example 91, 2,2-Dimethyl-N-(4-phenylbutyl)-4-(2-phenyl-1-piperidyl)piperidine-1-carboxamide]: more than 1000 nM; for `CC1(C)CC(N2CCCC(c3ccccc3)C2)CCN1C(=O)NCCCCc1ccccc1` (mixture of isomers) [Example 92, 2,2-Dimethyl-N-(4-phenylbutyl)-4-(3-phenyl-1-piperidyl)piperidine-1-carboxamide]: more than 1000 nM; for `CC1CC(N2CCCCC2)CCN1C(=O)NCCCCc1ccccc1` (mixture of isomers) [Example 94, 2-Methyl-N-(4-phenylbutyl)-4-(1-piperidyl)piperidine-1-carboxamide]: less than 200 nM.
The value for `CCCCCNC(=O)N1CCC(N2CCCCC2)C[C@@H]1C` (mixture of isomers) [Example 97, (2S)-Methyl-N-pentyl-4-(1-piperidyl)piperidine-1-carboxamide] was 200 to 1000 nM; that for `CC[C@H](C)NC(=O)N1C(c2ccc(OC)cc2)COCC1(C)C` (mixture of isomers) [Example 155, (5R) AND (5S)-5-(4-Methoxyphenyl)-3,3-dimethyl-N-[(1S)-1-methylpropyl]morpholine-4-carboxamide] was less than 200 nM.
Consider `CCCCCNC(=O)N1C(c2ccc(F)cc2)COCC1(C)C` (single isomer, unassigned) [Example 138, (5S) or (5R)-5-(4-Fluorophenyl)-3,3-dimethyl-N-pentylmorpholine-4-carboxamide], for which the 50% inhibitory concentration (IC50) is less than 200 nM.
The same measure for `CCCCCNC(=O)N1C(c2ccc(F)cc2)COCC1(C)C` (single isomer, unassigned) [Example 139, (5S) or (5R)-5-(4-fluorophenyl)-3,3-dimethyl-N-pentylmorpholine-4-carboxamide]: less than 200 nM; for `CC1(C)CCc2c(-c3ccccn3)cccc2N1C(=O)NCCc1ccccc1` [Example 5, 2,2-Dimethyl-N-phenethyl-5-(pyridin-2-yl)-3,4-dihydroquinoline-1(2H)-carboxamide]: more than 1000 nM.
Regarding `CCCCCNC(=O)N1CCC(c2ccccc2)CC1(C)C` (stereo not shown) [Example 76, 2,2-Dimethyl-N-pentyl-4-phenylpiperidine-1-carboxamide], the IC50 is more than 1000 nM.
Take `CC1(C)CC(c2ccccc2)CCN1C(=O)NC1CCOCC1` (stereo not shown) [Example 78, 2,2-Dimethyl-4-phenyl-N-tetrahydropyran-4-yl-piperidine-1-carboxamide]: the IC50 is more than 1000 nM.
The value for `CCCCCNC(=O)N1CCC(N2CCCCC2)CC1(C)C` (stereo not shown) [Example 84, 2,2-Dimethyl-N-pentyl-4-(1-piperidyl)piperidine-1-carboxamide] was less than 200 nM; that for `CCCCCCCNC(=O)N1CCC(N2CCCCC2)CC1(C)C` (stereo not shown) [Example 85, N-Heptyl-2,2-dimethyl-4-(1-piperidyl)piperidine-1-carboxamide] was more than 1000 nM; that for `CN1CCN(C2CCN(C(=O)NCCCCc3ccccc3)C(C)(C)C2)CC1` (stereo not shown) [Example 87, 2,2-Dimethyl-4-(4-methylpiperazin-1-yl)-N-(4-phenylbutyl)piperidine-1-carboxamide dihydrochloride] was less than 200 nM.
With `CC1(C)CCCCN1C(=O)NCCCCc1ccccc1` [Example 90, 2,2-Dimethyl-N-(4-phenylbutyl)piperidine-1-carboxamide carboxamide], the IC50 is more than 1000 nM.
The same measure for `CC1(C)CC(N2CCC(c3ccccc3)CC2)CCN1C(=O)NCCCCc1ccccc1` (stereo not shown) [Example 93, 2,2-Dimethyl-N-(4-phenylbutyl)-4-(4-phenyl-1-piperidyl)piperidine-1-carboxamide]: less than 200 nM; for `CCCCCNC(=O)N1CCC(N2CCCCC2)CC1C` (stereo not shown) [Example 95, 2-Methyl-N-pentyl-4-(1-piperidyl)piperidine-1-carboxamide]: 200 to 1000 nM; for `CCCCCNC(=O)N1CCC(N2CCCCC2)C[C@H]1C` (stereo partly drawn) [Example 96, (2R)-Methyl-N-pentyl-4-(1-piperidyl)piperidine-1-carboxamide hydrochloride salt]: less than 200 nM.
For `CCCCCNC(=O)N1C(C)CC(N2CCCCC2)CC1C` (stereo not shown) [Example 98, 2,6-Dimethyl-N-pentyl-4-(1-piperidyl)piperidine-1-carboxamide hydrochloride], the IC50 is less than 200 nM.
As to `CC1(C)CCC(N2CCCCC2)CN1C(=O)NCCCCc1ccccc1` (stereo not shown) [Example 99, 2,2-Dimethyl-N-(4-phenylbutyl)-5-(1-piperidyl)piperidine-1-carboxamide], the IC50 was less than 200 nM.
The same measure for `CC1CCC(N2CCCCC2)CN1C(=O)NCCCCc1ccccc1` (stereo not shown) [Example 100, 2-Methyl-N-(4-phenylbutyl)-5-(1-piperidyl)piperidine-1-carboxamide]: 200 to 1000 nM; for `CC1C(N2CCCCC2)CCCN1C(=O)NCCCCc1ccccc1` (stereo not shown) [Example 101, 2-Methyl-N-(4-phenylbutyl)-3-(1-piperidyl)piperidine-1-carboxamide]: 200 to 1000 nM; for `CCCCCNC(=O)N1[C@@H]2CC[C@H]1C[C@H](N1CCCCC1)C2` [Example 102, Exo-N-Pentyl-3-(1-piperidyl)-8-azabicyclo[3.2.1]octane-8-carboxamide]: more than 1000 nM.
The same measure for `CC1(C)CN(c2ccccc2)CCN1C(=O)NCCCCc1ccccc1` [Example 103, 2,2-Dimethyl-4-phenyl-N-(4-phenylbutyl)piperazine-1-carboxamide]: less than 200 nM; for `CC1(C)CN(c2ccccn2)CCN1C(=O)NCCCCc1ccccc1` [Example 104, 2,2-Dimethyl-N-(4-phenylbutyl)-4-(2-pyridyl)piperazine-1-carboxamide]: more than 1000 nM.
The value for `CC1(C)CN(c2cncnc2)CCN1C(=O)NCCCCc1ccccc1` [Example 105, 2,2-Dimethyl-N-(4-phenylbutyl)-4-pyrimidin-5-yl-piperazine-1-carboxamide] was more than 1000 nM; that for `CC1(C)C(=O)N(c2ccccc2)CCN1C(=O)NCCCCc1ccccc1` [Example 106, 2,2-Dimethyl-3-oxo-4-phenyl-N-(4-phenylbutyl)piperazine-1-carboxamide] was less than 200 nM.
Take `CCCCCNC(=O)N1CCN(c2ccccc2)C(=O)C1(C)C` [Example 107, 2,2-Dimethyl-3-oxo-N-pentyl-4-phenylpiperazine-1-carboxamide]: the IC50 lay in the range of 200 to 1000 nM.
The value for `CC1(C)C(=O)N(c2ccccc2)CCN1C(=O)NCCOCc1ccccc1` [Example 108, N-(2-Benzyloxyethyl)-2,2-dimethyl-3-oxo-4-phenylpiperazine-1-carboxamide] was more than 1000 nM.
